From US20190125745A1, “TREATMENT AND DIAGNOSIS OF CANCER” (Rgenix, Inc., priority 2014, published 2019)
Where a name gives a salt, the structure may show the parent alone.

Key:
[1] = system: B16F10 parental and DTIC-resistant cells; experiment: Tumor growth by DTIC-sensitive and DTIC-resistant B16F10 cells; type: in vivo, mouse; details: chow 100 mg/kg
Protocol: Dacarbazine-resistant B16F10 mouse melanoma cells were generated by continuously culturing the cells in the presence of DTIC (D2390, Sigma-Aldrich, St. Louis, Mo.). First, the cells were treated with 500 μg/mL DTIC for one week. Following this initial DTIC treatment, the remaining (˜10%) viable cells were allowed to recover for one week, after which 750 μg/mL of DTIC was added to the cell media for 5 days. Subsequent to this high-dose treatment, the cells were allowed to recover in the presence of low-dose DTIC (100 μg/mL) for one week. The cells were then continuously cultured in cell media containing 200 μg/mL DTIC for at least one month prior to grafting the cells into mice. DTIC was added to fresh cancer cell media every 3 days. For tumor growth experiments, 5×10^4 B16F10 parental and DTIC-resistant cells were subcutaneously injected into the lower flank of 7-week-old C57BL/6 mice.

[2] = system: B16F10 mouse melanoma cells; experiment: B16F10 tumor growth and metastasis with LXR or ApoE knockdown or knockout; type: in vivo
Protocol: FIG. 12. Therapeutic Delivery of LXR Agonists Upregulates Melanoma-Derived and Systemic ApoE Expression. (A-B) ApoE expression levels, quantified by qRT-PCR, in subcutaneous tumors formed by B16F10 mouse melanoma cells injected into C57BL/6 mice. After 5-mm^3 tumor formation, mice were fed a control diet or diet containing GW3965 (20 mg/kg) (A) or T0901317 (20 mg/kg) (B) for 7 days. n=3-4. (C-E) ApoEtranscript expression in primary tumors (C), lung metastases (D), and brain metastases (E) formed by MeWo human melanoma cells grafted onto NOD Scid mice that were administered control chow or chow supplemented with GW3965 (20 mg/kg). ApoE levels were assessed on day 35 (C), day 153 (D), and day 34 (E) post-injection of the cancer cells. n=3-5. (F) Relative expression levels of LXRα, LXRβ, and ApoE were determined by qRT-PCR in B16F10 mouse melanoma cells expressing a control hairpin or an shRNA targeting mouse LXRα (sh_mLXRα), mouse LXRβ (sh_mLXRβ), or mouse ApoE (sh_mApoE). (G-H) ApoE (G) and ABCA1(H) mRNA levels, measured by qRT-PCR, in B16F10 cells expressing a control shRNA or shRNAs targeting mouse LXRβ or mouse ApoE. The cells were treated with DMSO or GW3965 at 5 μM for 48 hours. n=3. (I) ABCA1 mRNA levels, measured by qRT-PCR, in systemic white blood cells extracted from LXRα −/− or LXRβ −/− mice fed a control diet or a GW3965-supplemented diet (20 mg/kg) for 10 days. n=3-4. (J) Relative expression of ApoE mRNA, expressed as the frequency of SAGE tags, in mouse skin and lung tissues was determined using the public mSAGE Expression Matrix database available through the NCI-funded Cancer Genome Anatomy Project (CGAP). (K) Relative expression of ApoE mRNA, determined by qRT-PCR, in MeWo melanoma cells dissociated from lung metastatic nodules (LM2) or primary tumors relative to control unselected MeWo parental cells. n=3.
FIG. 13. LXRβ Agonism Suppresses Melanoma Tumor Growth and Metastasis by Inducing Melanoma-Derived and Systemic ApoE Expression. […] (B) Quantification of ApoE protein expression based on western blots shown in (A). […] Representative tumor images extracted at the end point are shown in the right panel. n=6-18. (E) ApoE transcript levels, quantified by qRT-PCR, in systemic white blood cells extracted from LXRα −/− or LXRβ −/− mice fed a control diet or a GW3965-supplemented diet (20 mg/kg) for 10 days. n=3-5. (F) Subcutaneous tumor growth by 5×10^4 B16F10 control cells or B16F10 cells expressing an shRNA targeting mouse ApoE (sh_mApoE) in C57BL/6-WT or ApoE−/− mice. […] Representative images of tumors extracted at the final day of measurement (d12) are shown on the right. n=8-18. (G) Lung colonization by 5×10^4 B16F10 cells transduced with a control shRNA or sh_mApoE and intravenously injected into C57BL/6-WT or ApoE−/− mice. […] Lung metastasis was quantified on d22 by bioluminescence imaging. Representative lungs extracted at the end point (d22) are shown in the right panel. n=5-10. (H) ApoE protein expression, determined by blinded immunohistochemical analysis, in non-metastatic (n=39) and metastatic (n=34) primary melanoma skin lesion samples obtained from patients at MSKCC. The fraction of ApoE-positively staining cell area was quantified as a percentage of total tumor area.

Compound: O=C(O)Cc1cccc(OCCCN(Cc2cccc(C(F)(F)F)c2Cl)CC(c2ccccc2)c2ccccc2)c1 [GW3965 108, 3-[3-[N-(2-Chloro-3-trifluoromethylbenzyl)-(2,2-diphenylethyl)amino]propyloxy] phenylacetic acid hydrochloride]
- suppression of tumor growth by the DTIC-resistant B16F10 melanoma clone [1]: more than 70%
- metastasis suppression upon genetic inactivation of ApoE ([2]; ApoE−/− mice, diet 20 mg/kg): only partially prevented
- suppressing tumor growth in mice genetically inactivated for ApoE ([2]; ApoE−/− mice, diet 20 mg/kg): completely ineffective
- induction of ApoE expression upon knockdown of mouse melanoma-cell LXRβ ([2]; B16F10 cells, 5 μM, 48 hours): abrogated
- inhibition of metastasis with both melanoma-cell ApoE knockdown and genetic inactivation of systemic ApoE ([2]; diet 20 mg/kg): completely blocked
- suppression of tumor growth with melanoma-cell LXRβ knockdown ([2]; diet 20 mg/kg, 7 days): unable to prevent
- tumor growth inhibition upon depletion of melanoma-cell ApoE ([2]; diet 20 mg/kg, 7 days): did not prevent
- metastasis-suppressive effect upon knockdown of melanoma-cell ApoE ([2]; lung colonization, diet 20 mg/kg): partially prevented
- upregulation of systemic ApoE expression in LXR null mice ([2]; white blood cells, diet 20 mg/kg, 10 days): abrogated in LXRβ −/−, but not in LXRα −/− mice
